Literature values as cited in patent US11951100B2, “Formulations of RBP4 inhibitors and methods of use” (Belite Bio, LLC, priority 2019, dated 2024).

Conditions: sub-population with significant RBP4 lowering; cited from earlier work

For `CC1=C(/C=C/C(C)=C/C=C/C(C)=C/C(=O)Nc2ccc(O)cc2)C(C)(C)CCC1` [fenretinide], the lesion growth is given as “slower lesion growth”.
